Where a name gives a salt, the structure may show the parent alone. Read-outs that look alike come from different tables or passages of the source.

This assay concerns murine neural precursor cells (neurosphere cultures). The assay is described as follows: HTS of LOPAC library against secondary neurosphere cultures, MTT proliferation assay at 3 μM, day 7 (z score, P value). It is filed as cell-based, mouse.
[1] abbreviates: LOPAC library screen at 3 μM, secondary neurosphere cultures, MTT.
Setting [2] is: LOPAC primary screen, neurosphere MTT proliferation, 3 μM, day 7.
The mark [3] stands for this setting: yes/no: significantly inhibited neurosphere proliferation (P<0.01) in the primary screen.
Where [4] appears, read: LOPAC screen, neurosphere MTT proliferation, 3 μM, day 7.
Where [5] appears, read: yes/no: significantly inhibited neurosphere proliferation (P<0.01) in primary screen.
[6] abbreviates: yes = significantly inhibited neurosphere proliferation (P<0.01) in the primary screen.
Setting [7] is: LOPAC library screen, 3 μM, MTT, secondary neurosphere cultures, day 7.
The mark [8] stands for this setting: primary LOPAC screen, 3 μM, MTT, neurosphere proliferation.
[9] abbreviates: yes/no: significantly inhibited neurosphere proliferation in the primary screen.
Setting [10] is: yes/no: significantly inhibited neurosphere proliferation in primary screen.
Setting [11] is: LOPAC library screen, 3 μM, MTT, neurosphere cultures.
The mark [12] stands for this setting: LOPAC library screen at 3 μM, MTT, secondary neurosphere cultures, screened in singlets.

For `O=C(O)CN(CCN(CC(=O)O)CC(=O)O)CCN(CC(=O)O)CC(=O)O` [Diethylenetriaminepentaacetic acid], the “Z Score” value under setting [1] was −0.4576. Under setting [2], this compound yielded a Z score of −0.458. The Activity result under setting [3] is “no”.
Regarding R-(−)-Desmethyldeprenyl hydrochloride, the “Z Score” value is −0.5056. The compound also yielded a Z score under setting [4] of −0.506. For the same compound, under setting [5], the Activity result was “no”.
For `COc1ccc2[nH]cc(CCNC(C)=O)c2c1` [Melatonin], the “Z Score” value under setting [1] is given as −0.2407. Also, the Z score under setting [2] was −0.241. Under setting [6], the Activity result is “no”.
Take `CC(C)Cc1ccc(C(C)C(=O)O)cc1` (racemic) [(±)-Ibuprofen]: under setting [2], the Z score is reported as −0.262. Also, the Activity result under setting [5] is given as “no”.
As for L(−)-Norepinephrine bitartrate, the “Z Score” value under setting [7] is listed as −1.418. Under setting [8], this compound showed a Z score of −1.418. Further, the Activity entry under setting [9] is recorded as “no”.
Take SKF 83565 hydrobromide: the Activity result under setting [10] is given as “no”.
Consider `COc1cccc(OC)c1OCCNCC1COc2ccccc2O1.Cl` (stereo not shown) [WB-4101 hydrochloride], for which the “Z Score” value is −2.247. Moreover, the Z score under setting [4] is listed as −2.247. Besides, the Activity result under setting [5] was “no”.
Turning to `CC(=O)N[C@@H](CS)C(=O)O` [N-Acetyl-L-Cysteine], the “Z Score” value under setting [7] was −1.621. In addition, under setting [8], the Z score is −1.621. The Activity entry under setting [9] is given as “no”.
Regarding `NC(=O)CI` [Iodoacetamide], the “Z Score” value was −8.706. The compound also gave a Z score under setting [2] of −8.706. Further, the Activity result under setting [3] is on record as “yes”.
For `C[C@@H]1O[C@H](C[N+](C)(C)C)C[C@H]1O.[Cl-]` (racemic) [(±)-Muscarine chloride], the Z score under setting [2] is −1.905. In addition, the Activity result under setting [6] is “no”.
Take S(−)-Willardiine: the “Z Score” value came out at 1.251. The compound also registered a Z score under setting [8] of 1.251. Moreover, the Activity entry under setting [9] was “no”.
For the compound `O=C1NCC2(CCN(CCc3ccccc3)CC2)O1` [Fenspiride hydrochloride], the “Z Score” value under setting [1] is −0.5762. The Z score under setting [2] was −0.576. Further, the Activity result under setting [5] is “no”.
`CN(C)CCC(c1ccc(Cl)cc1)c1ccccn1.O=C(O)/C=C\C(=O)O` (racemic) [(±)-Chlorpheniramine maleate]: the Activity result is “no” and the Z score is listed as −2.116.
On to `CSc1ccc2c(c1)C(N1CCN(C)CC1)Cc1ccccc1S2` (stereo not shown) [Methiothepin (38), Methiothepin, reference compound], for which, where the note is “168 h, 3 µM”, the “Z Score” value turned out to be 1.868 and the Z score was 1.868. Besides, the Activity result under setting [3] is “no”.
`Cc1cc(N)c2ccccc2[n+]1CCCCCCCCCCCCCC[n+]1c(C)cc(N)c2ccccc21` [Dequalinium analog, C-14 linker]: under setting [7], the “Z Score” value is reported as −11.27. Moreover, under setting [2], the Z score is reported as −11.274. Further, the Activity result under setting [3] is “yes”.
With `Cc1cnc(C(=O)NCCc2ccc(S(=O)(=O)NC(=O)NC3CCCCC3)cc2)cn1` [Glipizide], the Activity entry is “no”. Besides, under setting [1], the “Z Score” value is reported as −0.8295. Moreover, the Z score under setting [2] is listed as −0.830.
Consider `CC(C)C(=O)c1c(C(C)C)nn2ccccc12` [Ibudilast], for which, under setting [11], the “Z Score” value was 0.3787. Further, the Z score under setting [2] was found to be 0.379.
As for `COc1ccc([C@@H]2Sc3ccccc3N(CCN(C)C)C(=O)[C@@H]2OC(C)=O)cc1` [Diltiazem hydrochloride], the Activity entry was “no”. In addition, under setting [11], the “Z Score” value is on record as 0.5395. Under setting [4], the Z score amounted to 0.540.
As for `CCCOc1ccccc1-c1nc2nn[nH]c2c(=O)[nH]1` [Zaprinast], the “Z Score” value under setting [7] is −2.506. The Z score under setting [2] is on record as −2.506. Under setting [6], the Activity result is given as “yes”.
In the case of `CN(N=O)c1ccc(O)c(O)c1` [Me-3,4-dephostatin], the “Z Score” value was determined as 0.5834. Besides, under setting [2], the Z score was found to be 0.583. Under setting [6], the Activity result was “no”.
As for `CO/N=C(\C(=O)N[C@@H]1C(=O)N2C(C(=O)O)=C(CSc3nc(=O)c(=O)[nH]n3C)CS[C@H]12)c1csc(N)n1` [Ceftriaxone sodium], the Activity result is recorded as “no”. Also, the “Z Score” value under setting [12] was found to be 2.23. Under setting [2], this compound displayed a Z score of 2.230.
For `Clc1ccc(Cn2c(CN3CCCC3)nc3ccccc32)cc1` [Clemizole hydrochloride], the “Z Score” value under setting [12] is 2.788. For the same compound, the Z score under setting [4] stood at 2.788. Under setting [5], the Activity entry was “no”.
On to `Cc1cc(C(C)(C)C)c(O)c(C)c1CC1=NCCN1` [Oxymetazoline hydrochloride], for which, under setting [7], the “Z Score” value is recorded as −2.72. The Z score under setting [2] is −2.720. For the same compound, the Activity result under setting [6] is recorded as “yes”.
Turning to `COc1ccccc1N1CCN(CCCCNC(=O)c2ccc3ccccc3c2)CC1` [BP 897], where the note is “168 h, 3 µM”, the “Z Score” value is on record as −1.715 and the Z score was −1.715. In addition, under setting [5], the Activity result is reported as “no”.
For the compound (S)-(−)-propafenone hydrochloride, the “Z Score” value under setting [1] was −0.7524. The compound further gave a Z score under setting [2] of −0.752. Also, the Activity result under setting [10] is on record as “no”.
Under setting [2], `CCCCCCCCCCCCCCCC(=O)OC(CC(=O)O)C[N+](C)(C)C.[Cl-]` (racemic) [Palmitoyl-DL-Camitine chloride] registered a Z score of 0.200. Also, under setting [10], the Activity result was “no”.
Turning to (−)-Scopolamine methyl nitrate, the Activity entry under setting [10] is listed as “no”.
Take `O=c1c(O)c(-c2ccc(O)cc2O)oc2cc(O)cc(O)c12` [Morin]: under “168 h, 3 µM”, the “Z Score” value was −2.216 and the Z score was −2.216. Besides, the Activity result under setting [6] is given as “no”.
Consider `CP(=O)(O)CCCN.Cl` [SKF 97541 hydrochloride], for which the “Z Score” value is −0.7355. Also, under setting [8], the Z score was −0.736. The Activity entry under setting [9] was “no”.
Consider `O=C(O)CCCc1ccc(N(CCCl)CCCl)cc1` [Chlorambucil], for which the “Z Score” value turned out to be 0.08078. This compound had a Z score under setting [2] of 0.081. Also, under setting [3], the Activity entry is “no”.
`N#CC(C#N)=C(N)/C(C#N)=C/c1ccc(O)cc1` [Tyrphostin AG 112]: the “Z Score” value under setting [11] amounted to 0.3333. Under setting [2], this compound registered a Z score of 0.333. For the same compound, the Activity entry under setting [10] is given as “no”.
As to `C[N+]1(C)CCC(OC(=O)C(c2ccccc2)c2ccccc2)CC1.[I-]` [4-DAMP methiodide], the “Z Score” value under setting [11] is listed as 0.3311. Also, the Z score under setting [4] is on record as 0.331. Also, under setting [5], the Activity result is on record as “no”.
For `O=C(O)c1cccnc1Nc1cccc(C(F)(F)F)c1` [Niflumic acid], the “Z Score” value under setting [7] was −1.958. The compound also gave a Z score under setting [2] of −1.958. Further, the Activity result under setting [6] was “no”.
In the case of `Oc1ncnc2[nH]ncc12` [Allopurinol], the “Z Score” value under setting [11] came out at 0.1473. Under setting [8], this compound gave a Z score of 0.147. Further, the Activity result under setting [9] is “no”.
For JL-18, the “Z Score” value is −0.2861. For the same compound, the Z score under setting [2] is given as −0.286. Also, the Activity result under setting [5] is “no”.
The matching figures for `NCc1cc(=O)[nH]o1` [Muscimol hydrobromide]: 0.1863, 0.186 and “no”.
Regarding `CN(C)CCOC(c1ccccc1)c1ccccc1` [Diphenhydramine hydrochloride], the “Z Score” value under setting [11] came to 0.8449. Further, under setting [2], the Z score amounted to 0.845. Under setting [3], the Activity result is reported as “no”.
Take `NCC(=O)NCCC(c1ccccc1)c1ccccc1` [N-(3,3-Diphenylpropyl)glycinamide]: under setting [7], the “Z Score” value was −1.243. This compound also displayed a Z score under setting [2] of −1.243. For the same compound, the Activity entry under setting [5] is on record as “no”.
For the compound `C[C@H](O)C(=O)C1=Nc2c(nc(N)[nH]c2=O)NC1` [Sepiapterin], where the note is “168 h, 3 µM”, the “Z Score” value is reported as 1.795 and the Z score worked out at 1.795. Further, the Activity result under setting [9] is given as “no”.
Regarding `CCC1(c2ccc(N)cc2)CCC(=O)NC1=O` (stereo not shown) [(B1)-p-Aminoglutethimide], the “Z Score” value is listed as −0.4441.
`CC(CCc1ccccc1)NCC(O)c1ccc(O)c(C(N)=O)c1` (stereo not shown) [Labetalol hydrochloride]: the Activity entry is reported as “no”. Moreover, the “Z Score” value under setting [1] is on record as −1.097. In addition, the Z score under setting [2] is recorded as −1.097.
On to `CC(N)c1cccc(Cl)c1Cl.Cl` (racemic) [(±)-2,3-Dichloro-alpha-methylbenzylamine hydrochloride], for which the Z score under setting [4] is −2.251. Moreover, the Activity entry under setting [5] is recorded as “no”.
In the case of `CC1(C)CCC(NC(=O)[C@@H](N)CCC(=O)O)CC1` [CR 2249], where the note is “168 h, 3 µM”, the “Z Score” value was −1.002 and the Z score is −1.002. Further, the Activity entry under setting [6] is given as “no”.
`CC(=O)[C@H]1CC[C@H]2[C@@H]3CC[C@H]4C[C@H](O)CC[C@]4(C)[C@H]3C(=O)C[C@]12C` [5alpha-Pregnan-3alpha-ol-11,20-dione]: the “Z Score” value was −0.8078. This compound returned a Z score under setting [2] of −0.808.
Regarding `CCc1ccccc1OC[C@@H](O)CN[C@H]1CCCc2ccccc21.O=C(O)C(=O)O` [SR 59230A oxalate], under setting [7], the “Z Score” value is recorded as −1.222. This compound returned a Z score under setting [2] of −1.222. The Activity entry under setting [10] is given as “no”.
On to `NC1CCN(O)C1=O` (racemic) [(±)-HA-966], for which the Activity result is reported as “no”. Moreover, under setting [8], the Z score was found to be 1.157.
For the compound `N#CC(=C(/N)Sc1ccccc1N)/C(C#N)=C(/N)Sc1ccccc1N` [U0126], the “Z Score” value was 0.711. The compound also returned a Z score under setting [8] of 0.711. Further, the Activity entry under setting [9] is “no”.
`N#Cc1cc2nc([O-])c([O-])nc2cc1[N+](=O)[O-].[Na+].[Na+]` [CNQX disodium]: the “Z Score” value under setting [7] is −1.904. Besides, the Z score under setting [4] was −1.904. In addition, the Activity entry under setting [5] is listed as “no”.

(Values after patent publication US8058243B2, “Method for treating a brain cancer with ifenprodil” (HSC Research and Development Limited Partnership, priority 2006, dated 2011).)
